The Deep4Chem optical property database
Each block holds one molecule with its values, some of them ahead of it.

Test: solvent given as SMILES

- emission maximum (in CC#N): 466 nm
Compound: COc1ccc(C2=[O+][B-](F)(F)OC(c3ccc4c(c3)Cc3ccccc3-4)=C2)cc1

- emission maximum (in CCO): 465 nm
- emission maximum (in ClC(Cl)Cl): 453 nm
Compound: CCOc1ccc2c(-c3nc(-c4ccccc4F)no3)cc(=O)oc2c1

- emission maximum (in CC#N): 408 nm
Compound: c1ccc2c(c1)ncc1ccc3cnc4ccccc4c3c12

Compound: c1ccc(-c2nc(-c3ccccc3)nc(-c3ccc(N4c5ccccc5CCc5ccccc54)cc3)n2)cc1
- emission maximum (in Cc1ccccc1): 422.22 nm

Compound: N#Cc1ccc(C#Cc2ccc3ccc4ccc(C#Cc5ccc(C#N)cc5)c5ccc2c3c45)cc1
- emission maximum (in C1COCCO1): 443.3 nm
- emission maximum (in CC(C)=O): 445.8 nm
- emission maximum (in CCCCCC): 435.5 nm
- emission maximum (in CCCCCCO): 448 nm
- emission maximum (in CCO): 445.5 nm
- emission maximum (in CCOC(C)=O): 442.4 nm
- emission maximum (in CO): 445.3 nm
- emission maximum (in Cc1ccccc1): 446.4 nm
- emission maximum (in ClCCl): 448.8 nm

- emission maximum (in CO): 513 nm
Compound: CCN(C)c1ccc(C2=C3C(C)=CC(C)=[N+]3[B-](F)(F)n3c(C)cc(C)c32)cc1

- emission maximum (in ClCCl): 668 nm
Compound: CC(C)c1cccc(C(C)C)c1N1C(=O)c2ccc3cc4c(cc5ccc6c7c(ccc4c57)C(=O)N(c4c(C(C)C)cccc4C(C)C)C6=O)c4ccc(c2c34)C1=O

- emission maximum (in O): 408 nm
Compound: Clc1ccc2cc3cccc[n+]3cc2c1

- emission maximum (in ClCCl): 410 nm
Compound: N#Cc1ccc(C#Cc2ncc(-c3ccccc3)o2)cc1

Compound: O=C1c2cc(-n3c4ccccc4c4ccccc43)ccc2S(=O)(=O)c2ccc(-n3c4ccccc4c4ccccc43)cc21
- emission maximum (in C1CCOC1): 592 nm
- emission maximum (in CCCCCC): 484 nm
- emission maximum (in Cc1ccccc1): 546 nm
- emission maximum (in ClC(Cl)Cl): 606 nm
- emission maximum (in ClCCl): 614 nm

- emission maximum (in C1CCOC1): 539 nm
- emission maximum (in CC#N): 580 nm
- emission maximum (in CCO): 520 nm
- emission maximum (in CCOC(C)=O): 528 nm
- emission maximum (in CN(C)C=O): 581 nm
- emission maximum (in ClCCl): 568 nm
- emission maximum (in O): 570 nm
- emission maximum (in c1ccccc1): 505 nm
Compound: CCCCn1c2ccc(/C=C(\C#N)c3ccc([N+](=O)[O-])cc3)cc2c2cc(Cn3c(-c4ccc5c(c4)c4ccccc4n5CCCC)nc4ccccc43)ccc21

- emission maximum (in CCCCCCCCCCCCCC): 474 nm
- emission maximum (in ClCCl): 480 nm
Compound: c1csc(-c2ccc(-c3ccc(-c4cccs4)s3)s2)c1

- emission maximum (in CO): 502 nm
Compound: BrC1=CN2C[n+]3cc(Br)c4ccccc4c3N=C2c2ccccc21

- emission maximum (in ClC(Cl)Cl): 447 nm
Compound: F[B-]1(F)OC(c2ccccc2)=Cc2c3ccccc3c3ccccc3[n+]21

Compound: FC(F)(F)c1ccc(-c2nnc(-c3cc(-n4c5ccccc5c5ccccc54)c(-n4c5ccccc5c5ccccc54)cc3-c3nnc(-c4ccc(C(F)(F)F)cc4)o3)o2)cc1
- emission maximum (in CC#N): 544.97 nm
- emission maximum (in Cc1ccccc1): 487 nm
- emission maximum (in ClCCl): 519.92 nm

- emission maximum (in CC1CCCCC1): 342 nm
- emission maximum (in CC#N): 384 nm
- emission maximum (in CO): 385 nm
Compound: COC(=O)C(NC(=O)OC(C)(C)C)c1ccc2oc(-c3ccc(C#N)cc3)nc2c1 (centres undefined)

- emission maximum (in ClCCl): 389 nm
Compound: COc1cc2c(cc1OC)C1=C[C@H](c3ccccc3)C3(C(C#N)=C(C#N)N1CC2)c1cc(Cl)ccc1-c1ccc(Cl)cc13

Compound: c1ccc2c(c1)c1ccccc1n2-c1ccc(-c2ccc(-c3ccc(-n4c5ccccc5c5ccccc54)nc3-n3c4ccccc4c4ccccc43)nn2)c(-n2c3ccccc3c3ccccc32)n1
- emission maximum (in CC#N): 474.18 nm
- emission maximum (in Cc1ccccc1): 400 nm
- emission maximum (in ClCCl): 419.62 nm

- emission maximum (in CO): 395 nm
Compound: COc1ccc(-c2nc(-c3ccccc3)c(-c3ccccc3)[nH]2)cc1

- emission maximum (in C1COCCO1): 486 nm
- emission maximum (in CC#N): 526 nm
- emission maximum (in CO): 522 nm
Compound: N#Cc1ccc(/C=C/C=C/C2=NC3C(=O)NC(N)=NC3N2[C@H]2C[C@H](O)[C@@H](CO)O2)cc1 (some centres undefined)

- emission maximum (in CO): 776 nm
- emission maximum (in O): 771 nm
Compound: CC1(C)C(/C=C/C=C/C=C/C=C2/N(CS(=O)(=O)[O-])c3ccc(S(=O)(=O)[O-])cc3C2(C)C)=[N+](CS(=O)(=O)[O-])c2ccc(S(=O)(=O)[O-])cc21

Compound: CC(C)CCCCN1CCc2c1ccc1c3c(ccc21)C(=O)CCC3
- emission maximum (in C1CCCCC1): 433 nm
- emission maximum (in CC#N): 489 nm
- emission maximum (in CC(C)O): 512 nm
- emission maximum (in CCC(C)=O): 481 nm
- emission maximum (in CCO): 522 nm
- emission maximum (in CCOC(C)=O): 467 nm
- emission maximum (in CS(C)=O): 472 nm
- emission maximum (in Cc1ccccc1): 452 nm
- emission maximum (in ClCCl): 472 nm
- emission maximum (in Clc1ccccc1): 462 nm

- emission maximum (in ClCCl): 725 nm
Compound: N#Cc1ccc(/C2=C3N=C(C(c4ccccc4)=C/3c3ccccc3)/C(c3ccc(C#N)cc3)=c3\[nH]/c(c(-c4ccccc4)c3-c3ccccc3)=C(/c3ccc(C#N)cc3)C3=N/C(=C(/c4ccc(C#N)cc4)c4[nH]c2c(-c2ccccc2)c4-c2ccccc2)C(c2ccccc2)=C3c2ccccc2)cc1

- emission maximum (in ClC(Cl)Cl): 567 nm
Compound: N#Cc1nc(N(Cc2ccccc2Cl)Cc2ccccc2Cl)c(C#N)nc1N(Cc1ccccc1Cl)Cc1ccccc1Cl

- emission maximum (in CCO): 542 nm
Compound: CNc1cc2nc3cc(Br)c(Br)cc3nc2cc1NC

Compound: Cc1ccc(-n2c(-c3cccc4cc[n-]c34)[nH+]c3c4ccccc4c4ccccc4c32)cc1
- emission maximum (in Cc1ccccc1): 566 nm

- emission maximum (in C1CCCCC1): 468 nm
- emission maximum (in CC#N): 495 nm
- emission maximum (in ClC(Cl)Cl): 488 nm
Compound: O=C1Cc2ccc(cc2)CC(=O)Cc2ccc(c3nsnc23)C1

Compound: FC(F)(F)c1cc2n(n1)[B-](c1ccccc1)(c1ccccc1)[n+]1ccc3ccccc3c1-2
- emission maximum (in C1CCCCC1): 410 nm
- emission maximum (in Cc1ccccc1): 410 nm
- emission maximum (in ClCCl): 404 nm

- emission maximum (in CS(C)=O): 449 nm
- emission maximum (in ClCCl): 440 nm
Compound: CC(C)(C)OC(=O)COc1ccc2c(c1)oc(=O)c1c(=O)oc3ccccc3c12

- emission maximum (in ClCCl): 430 nm
Compound: CCOC(=O)c1c(-c2cc3cc4c(cc3oc2=O)OC(C)(C)CC4)nn(-c2ccccc2)c1C(=O)OCC

- emission maximum (in C1CCOC1): 528 nm
Compound: N#Cc1c(N2CCCCC2)cc(-c2ccc3ccc4cccc5ccc2c3c45)c2c1-c1ccccc1C2=O

- emission maximum (in CC#N): 609 nm
Compound: COC(=O)/C=C/c1sc(-c2ccc(N(C)C)cc2)cc1N

- emission maximum (in CCCCCC): 577 nm
- emission maximum (in ClCCl): 609 nm
Compound: CC(C)[Si](C#Cc1c2ccccc2c(C#C[Si](C(C)C)(C(C)C)C(C)C)c2nc3ccccc3nc12)(C(C)C)C(C)C

Compound: COC(=O)C(Cc1ccc2oc(-c3ccc(N(c4ccccc4)c4ccccc4)cc3)nc2c1)NC(=O)OC(C)(C)C (centres undefined)
- emission maximum (in C1CCCCC1): 395.25 nm
- emission maximum (in C1CCOC1): 447.04 nm
- emission maximum (in C1COCCO1): 436.75 nm
- emission maximum (in CC1CCCCC1): 395 nm
- emission maximum (in CC1COC(=O)O1): 474 nm
- emission maximum (in CC#N): 465.75 nm
- emission maximum (in CC(C)=O): 456.17 nm
- emission maximum (in CC(C)O): 455.75 nm
- emission maximum (in CC(O)CO): 482.75 nm
- emission maximum (in CCCCCC): 392.75 nm
- emission maximum (in CCCCCCCC): 394 nm
- emission maximum (in CCCCCO): 454.75 nm
- emission maximum (in CCCCO): 454.5 nm
- emission maximum (in CCO): 475.75 nm
- emission maximum (in CCOC(C)=O): 448.75 nm
- emission maximum (in CN(C)C=O): 461.75 nm
- emission maximum (in CO): 486 nm
- emission maximum (in COCCOC): 453.75 nm
- emission maximum (in CS(C)=O): 474.5 nm
- emission maximum (in ClC(Cl)Cl): 445 nm
- emission maximum (in ClCCl): 451.25 nm
- emission maximum (in N#Cc1ccccc1): 461.25 nm
- emission maximum (in NC=O): 491.5 nm
- emission maximum (in O): 502.99 nm
- emission maximum (in OCC(F)(F)F): 496.25 nm

- emission maximum (in CC#N): 330 nm
- emission maximum (in CCOC(C)=O): 327 nm
- emission maximum (in CO): 338 nm
Compound: COC(=O)C[C@H](NC(=O)[C@H](Cc1c[nH]c2ccccc12)NC(=O)OC(C)(C)C)C(=O)OC

- emission maximum (in C1CCCCC1): 472 nm
- emission maximum (in C1CCOC1): 500 nm
- emission maximum (in CC#N): 516 nm
Compound: Cc1ccc2nc3c(nc2c1)c(-c1ccccc1)nn3C
